In assay [1] the target is T1, delta opioid receptor (Mus musculus, UniProt P32300). Briefly: radioligand binding assay, delta receptor ([3H]-DADLE, mouse brain membranes). As to conditions: [3H]-DADLE 1.3 nM in presence of 40 nM DAMGO, read-out: Ki δ. The protocol:
(§1) The activity of the compounds of the present invention as selective delta ligands is determined in radioligand binding assays as described below.
(§2) Mouse brain membranes were prepared as described by Kosterlitz (Br. J. Pharmacol., 1981, 73, 939.). The binding of the preferential delta ligand [^3 H]-[D-Ala^2, D-Leu^5 ]-enkephalin (DADLE) was evaluated at its KD concentration (1.3 nM) in presence of 40 nM of the unlabelled mu ligand [D-Ala^2, MePhe^4, Gly-ol^5 ]-enkephalin (DAMGO). The binding of the mu ligand [^3 H]-DAMGO (Eur. J. Pharmacol., 1989, 166, 213) and of the kappa ligand [^3 H]-U69593 (Excerpta Medica, 1990, 211) were carried out at 0.5 nM. The non-specific binding was determined in presence of naloxone (10 μM) for all tritiated ligands. Binding data were expressed as percentage of inhibition and fitted the following equation: f(x)=100·X/(IC50 +X) where X are cold drug concentration values. The IC50 obtained were used to calculate the inhibitory constants (Ki) accordingly to the Cheng and Prusoff relation (Biochenl. Pharmaco., 1973, 22, 3099).

The target of assay [2] is T1, delta opioid receptor. The assay can be described thus: mouse vas deferens (MVD) bioassay, delta agonist/antagonist activity. Details: Vasa deferentia were obtained from CD-1 mice; from tissue; host or cells: vas deferens of CD-1 mice. The protocol:
The delta agonist/antagonist activity of the compounds of the present invention is determined in the mouse vas deferens (MVD) bioassay as described below.
Vasa deferentia were obtained from CD-1 mice and were suspended in a Mg^2+ -free Krebs buffer at 37° C. The tissues were electrically stimulated with pulse trans having the following parameters: train duration 50 ms, stimulus duration 2 ms, frequency of stimuli 50 Hz, maximal voltage 60-70 V, train frequency 0.1 Hz. Concentration response curves for each compounds were constructed cumulatively. Linear regression analysis and IC50 concentrations were evaluated according to Tallarida and Murray (Manual of Pharmacological Calculations, Springer Verlag N.Y., 1981).

In the next assay the target is T2, mu opioid receptor (Mus musculus, UniProt P42866).
T2 construct: Mouse brain membranes were prepared as described by Kosterlitz; from tissue; host or cells: mouse brain membranes
The assay can be described thus: radioligand binding assay, mu receptor ([3H]-DAMGO, mouse brain membranes). As to conditions: selectivity ratio mu over delta. The method, then: as §1, §2

For a further assay, the target named is T3, kappa opioid receptor (Mus musculus, UniProt P33534).
T3 construct: Mouse brain membranes were prepared as described by Kosterlitz; from tissue; host or cells: mouse brain membranes
The assay can be described thus: radioligand binding assay, kappa receptor ([3H]-U69593, mouse brain membranes). As to conditions: selectivity ratio kappa over delta. The method, then: as §1, §2

Structures are written as SMILES. Counter-ions that a name gives are not always drawn.

T1 sequence (P32300 whole entry): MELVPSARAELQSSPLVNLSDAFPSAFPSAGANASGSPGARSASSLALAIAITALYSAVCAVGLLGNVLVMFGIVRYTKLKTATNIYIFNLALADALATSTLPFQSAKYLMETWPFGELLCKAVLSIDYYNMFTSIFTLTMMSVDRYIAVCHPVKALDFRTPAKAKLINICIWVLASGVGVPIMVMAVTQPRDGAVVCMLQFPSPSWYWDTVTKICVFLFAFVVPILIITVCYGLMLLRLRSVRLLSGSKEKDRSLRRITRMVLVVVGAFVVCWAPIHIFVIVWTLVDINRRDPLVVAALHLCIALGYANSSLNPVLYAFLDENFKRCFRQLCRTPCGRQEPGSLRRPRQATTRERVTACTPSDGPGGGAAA
T3 sequence (P33534 whole entry): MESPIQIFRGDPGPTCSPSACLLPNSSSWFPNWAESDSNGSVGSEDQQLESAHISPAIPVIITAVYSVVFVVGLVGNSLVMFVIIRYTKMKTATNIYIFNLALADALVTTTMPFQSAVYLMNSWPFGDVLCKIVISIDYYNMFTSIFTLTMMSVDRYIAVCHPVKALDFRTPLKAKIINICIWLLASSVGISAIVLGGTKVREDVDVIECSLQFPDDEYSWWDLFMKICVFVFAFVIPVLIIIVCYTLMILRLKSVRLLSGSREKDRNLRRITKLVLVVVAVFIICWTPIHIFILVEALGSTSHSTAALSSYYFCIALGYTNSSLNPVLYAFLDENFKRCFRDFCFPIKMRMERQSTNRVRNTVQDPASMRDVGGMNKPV
T2 sequence (P42866 whole entry): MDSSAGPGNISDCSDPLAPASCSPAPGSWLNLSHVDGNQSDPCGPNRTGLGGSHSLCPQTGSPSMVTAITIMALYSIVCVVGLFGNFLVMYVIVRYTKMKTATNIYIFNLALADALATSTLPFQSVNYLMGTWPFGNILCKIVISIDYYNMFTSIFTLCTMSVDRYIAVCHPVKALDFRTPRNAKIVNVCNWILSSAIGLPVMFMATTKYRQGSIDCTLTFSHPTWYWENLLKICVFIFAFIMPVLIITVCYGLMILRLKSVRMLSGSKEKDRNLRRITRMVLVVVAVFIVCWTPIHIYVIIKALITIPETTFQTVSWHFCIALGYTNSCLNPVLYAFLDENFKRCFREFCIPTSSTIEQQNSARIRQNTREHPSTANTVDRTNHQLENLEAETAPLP

Consider `CCN(CC)C(=O)c1ccc(N(c2cccc(O)c2)C(C)CN2CCCC2)cc1` (racemic) [Example 5, (±)-N,N-diethyl-4-[[N-(3-hydroxyphenyl)-N-(3-pyrrolidinoprop-2-yl)]amino]benzamide citrate], for which the Ki (in general, the equilibrium dissociation constant of an inhibitor or competing ligand from its target) at delta opioid receptor [1] is 3.9 nM. In addition, at delta opioid receptor [2] (30 nM of NTI (naltrindole)), the “shift of the dose-response curve caused by NTI” value is 10 fold. Further, the IC50 (in general, the midpoint of a concentration-inhibition curve) on delta opioid receptor [2] (electrically stimulated CD-1 mouse vas deferens, 37° C., delta agonists) was found to be 7 nM.
On to `CCN(CC)C(=O)c1ccc(N(c2cccc(O)c2)C(C)CN(C)C)cc1` (racemic) [Example 9, (±)-N,N-diethyl-4-[[N-(3-dimethylaminoprop-2-yl)-N-(3-hydroxyphenyl)]amino]benzamide oxalate], for which the Ki on delta opioid receptor [1] is 3.9 nM. The “Ki μ/Ki δ” value at mu opioid receptor turned out to be 148. Further, on kappa opioid receptor, the “Ki κ/Ki δ” value came to 153.

Source of the values: patent US5922887A, “Diaryldiamine derivatives and their use as delta opiod (ANT)-agonists” (SmithKline Beecham SpA, priority 1995, dated 1999).
